# Test results: ChEMBL document CHEMBL1122167, “Syntheses and adrenergic agonist properties of ring-fluorinated isoproterenols” (J Med Chem, 1982)
# Tests used:
# Adrenergic receptor beta [1] = target: Adrenergic receptor beta (Rattus norvegicus, UniProt P18090+P10608+P26255)
# [2] = target: Adrenergic receptor alpha
# Adrenergic receptor beta [3] = target: Adrenergic receptor beta (Homo sapiens, UniProt P08588+P07550+P13945)
# Description: Evaluated for Beta adrenergic receptor agonistic property in isolated guinea pig atria
smiles,measurement,setting,value
CC(C)NCC(O)c1cc(O)c(O)c(F)c1 (stereo not given),IC50,Adrenergic receptor beta [1],0.6 µM
same,IC50,[2],55 µM
same,EC50,Adrenergic receptor beta [3],0.02 µM
CC(C)NCC(O)c1cc(O)c(O)cc1F (stereo not given),IC50,Adrenergic receptor beta [1],5.5 µM
same,IC50,[2],80 µM
same,EC50,Adrenergic receptor beta [3],30 µM
CC(C)NCC(O)c1ccc(O)c(O)c1F (stereo not given),IC50,Adrenergic receptor beta [1],0.5 µM
same,IC50,[2],59 µM
same,EC50,Adrenergic receptor beta [3],0.01 µM
CC(C)NCC(O)c1ccc(O)c(O)c1 (racemic) [ISOPROTERENOL],IC50,[2],> 100 µM
